Test results published in PubChem BioAssay (NCI).
Several values for one entry are separate records, joined by “and”; a condition that tells them apart may be missing. Equal values may be shown once.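 Protocol summary: plate cells (96-well), add compound at 5 concentrations, incubate 48 h, interpolate endpoints linearly. GI50 marks 50% less growth. TGI: concentration producing complete growth inhibition.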

Tests used:
Test in all cases: DTP human tumour cell line panel, 48 h
NCI/ADR-RES ovarian = tested on: NCI/ADR-RES ovarian
MCF7 breast = tested on: MCF7 breast
MDA-MB-435 = tested on: MDA-MB-435
DMS 114 small cell lung = tested on: DMS 114 small cell lung
LXFL 529 NSCLC = tested on: LXFL 529 NSCLC
KM20L2 colon = tested on: KM20L2 colon
RXF-631 renal = tested on: RXF-631 renal
XF 498 CNS = tested on: XF 498 CNS
MDA-N = tested on: MDA-N

| SMILES | GI50 (NCI/ADR-RES ovarian) | TGI (NCI/ADR-RES ovarian) | GI50 (MCF7 breast) | TGI (MCF7 breast) | GI50 (MDA-MB-435) | TGI (MDA-MB-435) | TGI (DMS 114 small cell lung) [µM] | TGI (LXFL 529 NSCLC) [µM] | TGI (KM20L2 colon) [µM] | TGI (RXF-631 renal) [µM] | TGI (XF 498 CNS) [µM] | TGI (MDA-N) |
| --- | --- | --- | --- | --- | --- | --- | --- | --- | --- | --- | --- | --- |
| C=C1CC[C@@H]2[C@](C)(COC(C)=O)[C@H](OC(C)=O)CC[C@@]2(C)[C@@H]1CC(Sc1ccccc1)C1=CCOC1=O (some centres undefined) | 2.1 µM | 11 µM | 0.538 µM | 2.35 µM | 1.41 µM | 3.58 µM |  |  |  |  |  |  |
| CN(C)c1nc2ccccc2[nH]1 |  |  |  |  |  |  | > 100 | > 100 | > 100 |  |  |  |
| COC(=O)c1cc2c(s1)C(=O)c1ccccc1-2 |  |  |  |  |  |  | > 100 | > 100 | > 100 | > 100 |  |  |
| O=C(OC(CNc1cc(=O)n(Cc2ccccc2)c(=O)n1Cc1ccccc1)CN1CCCC1)c1ccccc1 (centres undefined) | > 100 µM | > 100 µM | > 100 µM | > 100 µM | > 100 µM | > 100 µM |  |  |  |  |  |  |
| Cn1c2c(c3ccccc31)C1CCCCCCC1C1C(=O)OC(=O)C21 (centres undefined) |  |  |  |  |  |  | 75.2 | > 100 |  | > 100 | 93.1 |  |
| S=C(Nc1ccccc1)N(/N=C/C=C/c1ccccc1)c1nnc(-c2ccccc2)c(-c2ccccc2)n1 |  |  |  |  |  |  | > 100 |  | > 100 | > 100 | > 100 |  |
| S=C1NC2(CCCCCC2)NN1c1ccccc1 |  | > 100 µM |  | > 100 µM |  | > 100 µM | > 100 |  |  | > 100 |  | > 100 µM |
| N#CC(=C1C=CC(=NO)C=C1)c1ccccc1 | 1.49 µM | 11.8 µM | 0.319 µM | 11.6 µM | 0.331 µM | 1.65 µM |  |  |  |  |  |  |
| O=C(CCn1[nH]c(=O)c(Cl)c(Cl)c1=O)NO |  |  |  |  |  |  | > 100 | > 100 | > 100 |  | > 100 |  |
| COc1cc(C(Cc2ccccc2)NC(C)=O)oc(=O)c1 (centres undefined) |  |  |  |  |  |  | > 100 | > 100 | > 100 |  | > 100 |  |
| CC1(C)COC(c2cccnc2/C=N/O)=N1 |  |  |  |  |  |  |  | > 100 | > 100 | > 100 | > 100 |  |
| O=C(Cc1ccc(/C=C/C(=O)c2ncc[nH]2)cc1)Nc1cc(F)c(F)c(F)c1 | 7.26 µM | > 25 µM | 2.38 µM | 7.76 µM | 4.25 µM | 12.8 µM |  |  |  |  |  |  |
| Cc1cc(I)cc(CN(C)CCCN2CCCCCCC2)c1O | 20.1 µM | 45.3 µM | 14.2 µM | 30.6 µM | 13.2 µM | 30.1 µM |  |  |  |  |  |  |
| [Cl][Hg][c]1cc(Br)cc(Br)c1 | 3.07 µM | 13.5 µM |  |  | 1.8 µM | 3.82 µM |  |  |  |  |  |  |
| O/N=C/C1C(OCc2ccccc2)C(OCc2ccccc2)C(OCc2ccccc2)CN1Cc1ccccc1 (centres undefined) | 7.12 µM and 22.3 µM | 72.5 µM and > 100 µM | 9.88 µM and 2.9 µM | 40.8 µM and 15.7 µM | 14.1 µM and 3.14 µM | 33.6 µM and 27.1 µM |  |  |  |  |  | 39.3 µM and > 100 µM |
| N#CC(N)(C(=O)CCC(=O)Nc1cccc(Cl)c1)c1ccc(Cl)cc1 (centres undefined) |  |  |  |  |  |  | > 100 | > 100 | > 100 |  | > 100 |  |
| Cn1c2ccccc2c2c3c(c4c5cc(Br)ccc5n(C)c4c21)C(=O)N(O)C3=O | 0.0926 µM | > 100 µM | 0.0579 µM | > 100 µM | 0.319 µM | > 100 µM |  |  |  |  |  |  |
